Measured values from ChEMBL document CHEMBL1201862, “PubChem BioAssay data set” (2004).
Active and inactive are the calls of the source.

Experiments:
[1] = Luminescence Cell-Based Dose Confirmation HTS to Identify Inhibitors of Platelet Dense Granule Release. [Related pubchem assays: 1663 (Primary HTS), 1678 (Summary of Project)]; format: functional
[2] = target: Luciferin 4-monooxygenase (Photinus pyralis, UniProt P08659); assay: inhibition of purified Photinus pyralis luciferase – biochemical, luminescence, dose response (AID 1891)
Cytochrome P450 1A2 = target: T1, Cytochrome P450 1A2 (Homo sapiens, UniProt P05177);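 also: PubChem cytochrome P450 panel assay, CYP1A2 panel member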
T1 sequence (P05177 whole entry): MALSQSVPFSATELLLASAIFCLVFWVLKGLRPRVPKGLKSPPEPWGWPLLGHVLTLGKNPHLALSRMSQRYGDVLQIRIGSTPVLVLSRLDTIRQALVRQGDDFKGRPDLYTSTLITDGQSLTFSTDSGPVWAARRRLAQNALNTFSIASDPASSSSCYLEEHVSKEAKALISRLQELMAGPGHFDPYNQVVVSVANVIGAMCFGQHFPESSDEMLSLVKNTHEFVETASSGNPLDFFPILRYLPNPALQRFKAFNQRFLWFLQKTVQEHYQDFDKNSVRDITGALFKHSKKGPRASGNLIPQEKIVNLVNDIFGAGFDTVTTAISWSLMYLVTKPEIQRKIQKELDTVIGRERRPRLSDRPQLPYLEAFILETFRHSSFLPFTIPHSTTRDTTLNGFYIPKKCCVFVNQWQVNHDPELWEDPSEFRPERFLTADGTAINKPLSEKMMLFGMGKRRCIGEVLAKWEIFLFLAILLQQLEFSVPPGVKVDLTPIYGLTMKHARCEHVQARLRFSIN

Cytochrome P450 2C9 = Cytochrome P450 2C9 (Homo sapiens, UniProt P11712)
Cytochrome P450 3A4 = Cytochrome P450 3A4 (Homo sapiens, UniProt P08684);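 also: CYP3A4 tested as one member of a cytochrome P450 panel screen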
Streptokinase A = target: T2, Streptokinase A (Streptococcus pyogenes serotype M1, UniProt P10520); assay: viability-normalized secreted streptokinase activity reduction – plasminogen activation absorbance, OD405, dose response (AID 1914); format: functional, Streptococcus pyogenes M1 GAS;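 also: secreted streptokinase activity via plasminogen activation per viability signal from cell pellet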
T2 sequence (P10520 whole entry): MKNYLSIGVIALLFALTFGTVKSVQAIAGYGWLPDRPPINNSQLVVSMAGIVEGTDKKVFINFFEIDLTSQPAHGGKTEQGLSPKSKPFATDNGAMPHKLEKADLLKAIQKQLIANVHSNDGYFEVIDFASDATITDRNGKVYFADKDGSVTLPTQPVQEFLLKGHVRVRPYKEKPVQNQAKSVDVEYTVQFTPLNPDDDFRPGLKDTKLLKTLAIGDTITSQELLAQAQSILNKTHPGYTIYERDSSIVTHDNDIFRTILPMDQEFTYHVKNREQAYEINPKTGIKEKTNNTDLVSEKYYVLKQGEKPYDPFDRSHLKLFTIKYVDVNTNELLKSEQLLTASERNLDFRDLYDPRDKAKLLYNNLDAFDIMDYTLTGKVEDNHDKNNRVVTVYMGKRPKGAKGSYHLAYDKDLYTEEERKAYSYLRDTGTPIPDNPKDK

[3] = tested on: Streptococcus sp. 'group A'; assay: Streptococcus pyogenes SK(-)GAS viability under kanamycin – luminescence, BacTiterGlo, confirmation, counter-screen for streptokinase expression inhibitor project, dose response (AID 1900); format: functional, organism-based; settings: Streptococcus sp. 'group A'
cells [4] = format: functional, cell-based
Streptococcus = assay: GAS UMAA2166 growth inhibition – luminescence, BacTiterGlo, counter-screen for streptokinase expression inhibitor project, dose response (AID 1915); format: functional, organism-based; settings: Streptococcus;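 also: potency for reduction of bacterial viability or growth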
cells [5] = format: functional, cell-based; remark: listed apart in the source
[6] = target: T3, Rac GTPase-activating protein 1 (Homo sapiens, UniProt Q9H0H5); assay: blockers of MgcRacGAP-driven Rac1 GTP hydrolysis – biochemical, ADP Hunter fluorescence, primary and confirmatory, confirmation (AID 624330); format: functional
T3 sequence (Q9H0H5 whole entry): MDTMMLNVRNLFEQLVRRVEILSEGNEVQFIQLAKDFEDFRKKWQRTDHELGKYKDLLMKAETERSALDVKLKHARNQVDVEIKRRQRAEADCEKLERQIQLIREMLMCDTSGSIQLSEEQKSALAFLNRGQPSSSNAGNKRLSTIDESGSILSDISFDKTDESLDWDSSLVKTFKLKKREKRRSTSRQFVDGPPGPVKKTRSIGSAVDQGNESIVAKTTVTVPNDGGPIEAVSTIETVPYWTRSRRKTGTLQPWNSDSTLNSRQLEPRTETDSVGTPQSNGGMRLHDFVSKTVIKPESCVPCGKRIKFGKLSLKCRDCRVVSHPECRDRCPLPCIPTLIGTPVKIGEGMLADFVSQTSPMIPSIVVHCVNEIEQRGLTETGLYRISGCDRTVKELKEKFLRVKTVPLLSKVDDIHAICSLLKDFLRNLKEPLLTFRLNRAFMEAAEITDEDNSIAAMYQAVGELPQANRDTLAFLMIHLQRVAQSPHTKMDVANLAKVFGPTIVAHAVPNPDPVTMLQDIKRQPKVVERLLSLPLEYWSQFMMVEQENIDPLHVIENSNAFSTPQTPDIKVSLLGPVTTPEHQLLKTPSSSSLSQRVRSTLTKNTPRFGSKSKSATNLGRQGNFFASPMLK

[7] = target: T4, Corticotropin-releasing factor receptor 2/Corticotropin-releasing factor-binding protein (Homo sapiens, UniProt P24387+Q13324); assay: activators of CRF receptor 2 with binding protein – uHTS hits, confirmation (AID 602473); format: functional; settings: read-out: EC50_Mean
T4 sequence (Q13324 whole entry): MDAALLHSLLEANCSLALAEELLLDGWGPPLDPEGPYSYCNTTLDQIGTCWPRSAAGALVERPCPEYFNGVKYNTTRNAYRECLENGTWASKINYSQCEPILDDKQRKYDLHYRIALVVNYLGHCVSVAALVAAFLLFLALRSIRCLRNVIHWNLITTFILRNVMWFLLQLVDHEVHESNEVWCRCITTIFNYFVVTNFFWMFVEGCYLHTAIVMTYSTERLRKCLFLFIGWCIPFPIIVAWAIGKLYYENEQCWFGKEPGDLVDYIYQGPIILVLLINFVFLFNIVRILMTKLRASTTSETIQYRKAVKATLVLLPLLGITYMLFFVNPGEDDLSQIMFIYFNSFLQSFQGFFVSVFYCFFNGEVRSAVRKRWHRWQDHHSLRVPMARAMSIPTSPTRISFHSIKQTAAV
T4 sequence (P24387 whole entry): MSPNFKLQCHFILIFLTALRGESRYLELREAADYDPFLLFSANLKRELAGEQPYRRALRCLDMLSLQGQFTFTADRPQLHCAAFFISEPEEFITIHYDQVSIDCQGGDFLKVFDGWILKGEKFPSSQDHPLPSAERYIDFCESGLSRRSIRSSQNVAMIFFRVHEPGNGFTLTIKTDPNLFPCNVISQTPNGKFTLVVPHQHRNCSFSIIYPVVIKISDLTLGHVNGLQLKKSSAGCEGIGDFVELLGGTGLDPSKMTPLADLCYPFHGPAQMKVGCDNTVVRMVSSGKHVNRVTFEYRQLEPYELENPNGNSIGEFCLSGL

[8] = Luminescence Cell-Based Dose Confirmation HTS to Identify Activators of 5'UTR Stem-Loop Driven Alpha-Synuclein mRNA Translation in H4 Neuroglioblastoma Cells. [Related pubchem assays: 1829 (Project Summary), 1814 (Primary HTS)]; format: functional
[9] = Luminescence Cell-Based Dose Response HTS to Identify Activators of Luciferase Translation or Activity in H4 […] Cells. [Related pubchem assays: 1829 (Project Summary), 1814 (Primary HTS)]; format: functional
H4 = assay: Luminescence Cell-Based Dose Response HTS to Identify Activators of 5'UTR Stem-Loop Driven Prion Protein mRNA Translation in H4 Neuroglioblastoma Cells. [Related pubchem assays: 1829 (Project Summary), 1814 (Primary HTS)]; format: functional; settings: Homo sapiens
Cytochrome P450 2D6 = Cytochrome P450 2D6 (Homo sapiens, UniProt P10635);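 also: CYP2D6 member of a cytochrome P450 panel assay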
Cytochrome P450 2C19 = Cytochrome P450 2C19 (Homo sapiens, UniProt P33261); assay: Cytochrome panel assay with activity outcomes. Panel member name: p450-cyp2c19 Compounds with AC50 equal or less than 10 uM are considered active; format: functional; settings: read-out: AC50
Cytochrome P450 2C19, sequence (P33261 whole entry): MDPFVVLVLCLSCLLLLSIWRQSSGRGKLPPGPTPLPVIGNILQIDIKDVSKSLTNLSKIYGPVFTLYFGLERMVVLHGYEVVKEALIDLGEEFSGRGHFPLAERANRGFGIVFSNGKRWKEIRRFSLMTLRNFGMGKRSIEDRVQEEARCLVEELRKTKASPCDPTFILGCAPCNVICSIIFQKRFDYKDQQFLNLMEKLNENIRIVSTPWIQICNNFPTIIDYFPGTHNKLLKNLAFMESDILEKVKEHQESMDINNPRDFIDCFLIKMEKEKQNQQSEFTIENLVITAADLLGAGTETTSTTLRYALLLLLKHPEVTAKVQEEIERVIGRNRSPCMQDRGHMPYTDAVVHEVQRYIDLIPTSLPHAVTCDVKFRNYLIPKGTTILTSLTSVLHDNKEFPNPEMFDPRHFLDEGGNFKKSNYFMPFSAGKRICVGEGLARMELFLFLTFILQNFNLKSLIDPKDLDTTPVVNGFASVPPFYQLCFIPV

Cytochrome P450 2C9, sequence (P11712 whole entry): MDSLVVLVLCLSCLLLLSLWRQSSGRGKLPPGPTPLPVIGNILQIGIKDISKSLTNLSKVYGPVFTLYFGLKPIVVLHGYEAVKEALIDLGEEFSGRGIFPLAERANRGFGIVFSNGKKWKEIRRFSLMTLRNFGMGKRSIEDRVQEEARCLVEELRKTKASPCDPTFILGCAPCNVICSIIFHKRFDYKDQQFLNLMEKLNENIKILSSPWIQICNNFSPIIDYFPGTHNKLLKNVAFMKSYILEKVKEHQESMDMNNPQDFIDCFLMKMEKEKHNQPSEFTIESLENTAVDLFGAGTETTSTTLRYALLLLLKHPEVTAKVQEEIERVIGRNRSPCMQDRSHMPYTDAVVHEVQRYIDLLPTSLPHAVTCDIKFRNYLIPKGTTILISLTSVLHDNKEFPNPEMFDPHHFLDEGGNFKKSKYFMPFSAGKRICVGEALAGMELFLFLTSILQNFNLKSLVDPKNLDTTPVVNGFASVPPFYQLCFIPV
Cytochrome P450 3A4, sequence (P08684 whole entry): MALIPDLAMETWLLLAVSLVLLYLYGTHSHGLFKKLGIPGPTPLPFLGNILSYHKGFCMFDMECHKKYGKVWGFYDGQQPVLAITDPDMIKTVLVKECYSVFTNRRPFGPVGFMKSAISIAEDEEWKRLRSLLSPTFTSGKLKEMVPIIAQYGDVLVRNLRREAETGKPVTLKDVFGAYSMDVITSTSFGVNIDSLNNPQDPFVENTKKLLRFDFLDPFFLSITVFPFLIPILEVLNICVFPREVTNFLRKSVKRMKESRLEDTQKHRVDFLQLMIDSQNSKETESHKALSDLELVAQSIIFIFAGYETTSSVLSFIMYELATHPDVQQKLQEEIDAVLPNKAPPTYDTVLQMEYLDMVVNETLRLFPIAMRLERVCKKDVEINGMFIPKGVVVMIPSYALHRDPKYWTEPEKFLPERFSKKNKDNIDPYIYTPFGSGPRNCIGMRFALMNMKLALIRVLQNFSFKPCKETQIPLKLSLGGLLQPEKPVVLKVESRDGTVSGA
Luciferin 4-monooxygenase, sequence (P08659 whole entry): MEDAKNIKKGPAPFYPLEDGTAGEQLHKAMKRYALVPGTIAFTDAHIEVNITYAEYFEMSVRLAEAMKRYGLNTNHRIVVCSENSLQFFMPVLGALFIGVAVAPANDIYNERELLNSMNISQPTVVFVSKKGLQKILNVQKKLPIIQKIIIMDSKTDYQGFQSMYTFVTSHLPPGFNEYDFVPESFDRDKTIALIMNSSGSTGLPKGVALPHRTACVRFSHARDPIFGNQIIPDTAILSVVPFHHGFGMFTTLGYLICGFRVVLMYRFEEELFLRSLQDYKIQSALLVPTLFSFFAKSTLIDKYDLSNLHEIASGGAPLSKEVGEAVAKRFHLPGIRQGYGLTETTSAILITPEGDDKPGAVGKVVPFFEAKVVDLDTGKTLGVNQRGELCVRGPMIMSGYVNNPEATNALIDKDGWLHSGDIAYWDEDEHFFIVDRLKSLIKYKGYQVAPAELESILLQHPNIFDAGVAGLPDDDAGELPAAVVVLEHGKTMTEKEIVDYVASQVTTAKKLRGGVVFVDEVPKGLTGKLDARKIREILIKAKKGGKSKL
Cytochrome P450 2D6, sequence (P10635 whole entry): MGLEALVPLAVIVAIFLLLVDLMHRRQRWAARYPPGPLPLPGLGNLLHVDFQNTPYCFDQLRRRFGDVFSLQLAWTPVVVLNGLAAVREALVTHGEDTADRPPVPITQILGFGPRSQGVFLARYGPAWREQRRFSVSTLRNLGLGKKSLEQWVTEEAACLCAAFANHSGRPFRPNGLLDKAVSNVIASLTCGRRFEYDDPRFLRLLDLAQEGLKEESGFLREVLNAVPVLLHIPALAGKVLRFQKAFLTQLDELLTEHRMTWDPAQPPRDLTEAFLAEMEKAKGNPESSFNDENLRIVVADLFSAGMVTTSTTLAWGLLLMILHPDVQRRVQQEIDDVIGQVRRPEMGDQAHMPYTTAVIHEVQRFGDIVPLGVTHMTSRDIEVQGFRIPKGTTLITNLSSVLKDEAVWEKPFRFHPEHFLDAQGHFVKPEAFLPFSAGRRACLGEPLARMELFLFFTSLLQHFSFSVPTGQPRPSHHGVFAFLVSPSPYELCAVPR

COc1ccc(S(=O)(=O)N(Cc2cccnc2)Cc2cc3ccccc3nc2O)cc1
EC50 [1]: > 112 µM (not active)
EC50 [2]: > 112 µM (not active)

Cc1ccc2c(c1)NCC(C(=O)NC1CCCCC1)O2 (stereo not given)
AC50 (Cytochrome P450 1A2): 11.2 µM (inconclusive)
AC50 (Cytochrome P450 2C9): 39.8 µM (inconclusive)
AC50 (Cytochrome P450 3A4): 31.6 µM (inconclusive)

O=C(/C=C/c1cn(-c2ccccc2)nc1-c1ccccc1)Nc1ccc(C(=O)O)cc1
EC50 (Streptokinase A): > 150 µM (not active)
EC50 [3]: 6.15 µM (active)
EC50 (cells [4]): 24.8 µM (active)
EC50 (Streptococcus): 15.5 µM (active)
EC50 (cells [5]): > 350 µM (not active)

Cc1ccc2nc3c(O)n(CC(=O)NCCCN(C)Cc4ccccc4)ncc-3c2c1
EC50 (cells [4]): > 350 µM (not active)
EC50 (cells [5]): > 350 µM (not active)

Cc1c(NC(=O)CN2CC(C)OC(C)C2)c(=O)n(-c2ccccc2)n1C (stereo not given)
IC50 [6]: 83.1 µM (active)

O=C(NC(=S)Nc1cccc2c(O)cccc12)c1ccco1
IC50 [6]: 32.3 µM (active)

CC(=O)Nc1ccc(CN2CCCC(CO)(Cc3cccc(Cl)c3)C2)cc1 (stereo not given)
EC50 [7]: > 53 µM (inactive)

O=C(C1CCCN(Cc2cccnc2)C1)N1CCCCC1 (stereo not given)
IC50 [6]: 74 µM (active)

CCOC(=O)C1CCCN(C(=O)c2ccc3oc(Cc4ccccc4)nc3c2)C1 (stereo not given)
EC50 [8]: 13.9 µM (active)
EC50 [1]: > 112 µM (not active)
EC50 [2]: > 112 µM (not active)
EC50 [9]: 16.2 µM (active)
EC50 (H4): 36.4 µM (active)

CN(C)S(=O)(=O)c1ccc(Cl)c(NC(=O)COc2ccccc2[N+](=O)[O-])c1
EC50 [1]: > 112 µM (not active)
EC50 [2]: > 112 µM (not active)

NC(CCCCc1ccccc1)c1cccc2ccccc12 (stereo not given)
EC50 [1]: 24.6 µM (active)
EC50 [2]: > 112 µM (not active)

Cc1ccc(OCCCN2CCCC2)c(C)c1
IC50 [6]: 105 µM (active)

C=CCOc1ccc(/C=C2\SC(N)=NC2=O)cc1OC
EC50 (cells [4]): > 350 µM (not active)
EC50 (cells [5]): > 350 µM (not active)

CCCC(=O)C1=C(N2CCCCC2)CC(C)(C)C(C(=O)OC)C1=O (stereo not given)
EC50 [1]: > 112 µM (not active)
EC50 [2]: > 112 µM (not active)

CC(=O)c1cc(NC(=O)c2ccc(C)cc2)c(=O)oc1/C=C/N(C)C
EC50 [7]: 6.73 µM (active)

Cn1c(CCNC(=O)c2ccco2)nc2cc(NC(=O)C3CCCCC3)ccc21
EC50 (cells [4]): 97.8 µM (active)
EC50 (cells [5]): > 350 µM (not active)

COc1ccc(-c2noc(CCCC(=O)NCCc3ccccc3)n2)cc1OC
AC50 (Cytochrome P450 1A2): 15.8 µM (inconclusive)
AC50 (Cytochrome P450 2C9): 4.47 µM (inconclusive)
AC50 (Cytochrome P450 2D6): 22.4 µM (inconclusive)

Cc1ccc2cccc(S(=O)(=O)N3CCCc4ccccc43)c2n1
EC50 [1]: 15.8 µM (active)
EC50 [7]: 11.9 µM (active)
EC50 [2]: 34 µM (active)

Cc1nc2c(ccc3nc(NC(=O)c4ccc(S(=O)(=O)N(C)C)cc4)sc32)s1
AC50 (Cytochrome P450 2C19): 7.94 µM (inconclusive)
AC50 (Cytochrome P450 1A2): 3.16 µM (inconclusive)
AC50 (Cytochrome P450 2C9): 0.794 µM (inconclusive)
AC50 (Cytochrome P450 3A4): 3.55 µM (inconclusive)

COc1ccccc1OCc1nnc(SCC(=O)NCc2ccco2)n1-c1ccccc1
EC50 (cells [4]): > 350 µM (not active)
EC50 (cells [5]): > 350 µM (not active)

CC(C)COc1ccc(N)cc1OCC(C)C
IC50 [6]: 55.3 µM (active)

O=C(c1cc(C2CC2)nn1-c1ccccc1)N1CCN(c2ccc(O)cc2)CC1
IC50 [6]: 37.9 µM (active)

COc1ncnc2sc(-c3ccccc3)cc12
EC50 [1]: 6.33 µM (active)
EC50 [2]: 2.4 µM (active)

c1cncc(-c2nnc3n2C2(CCCCC2)Cc2ccccc2-3)c1
AC50 (Cytochrome P450 2C19): 44.7 µM (inconclusive)
AC50 (Cytochrome P450 1A2): 39.8 µM (inconclusive)
AC50 (Cytochrome P450 2C9): 31.6 µM (inconclusive)

CCC1(c2ccccc2)NC(=O)N(CC(=O)Nc2ccc(N3CCCC3)cc2C)C1=O (stereo not given)
IC50 [6]: 112 µM (active)

CC1(C)C[C@H](O)[C@@]23C[C@@H](OC2=O)[C@]2(C)C(=CCC4[C@@]5(C)CC[C@H](O)C(C)(C)C5CC[C@]42C)[C@@H]3C1 (stereo not given in full)
EC50 [7]: 5.32 µM (active)

Cc1nc([N+](=O)[O-])c(N2CCN(C)CC2)n1Cc1ccccc1
AC50 (Cytochrome P450 2C9): 39.8 µM (inconclusive)
AC50 (Cytochrome P450 2D6): 35.5 µM (inconclusive)

COC(=O)Cn1/c(=N/C(=O)CSC(C)=O)sc2ccccc21
EC50 [1]: > 112 µM (not active)
EC50 [2]: > 112 µM (not active)

O=[N+]([O-])c1ccc(/N=C/c2ccc(Br)c([N+](=O)[O-])c2)cc1
EC50 (cells [4]): > 350 µM (not active)
EC50 (cells [5]): > 350 µM (not active)

CCOC(=O)c1cc2c(=O)n3ccccc3nc2n(CCOC)/c1=N\C(=O)C(C)(C)C
AC50 (Cytochrome P450 2C19): 20 µM (inconclusive)
AC50 (Cytochrome P450 2C9): 17.8 µM (inconclusive)
AC50 (Cytochrome P450 3A4): 31.6 µM (inconclusive)

C=CCN1C(=O)/C(=C2/Sc3ccccc3N2C)S/C1=N\c1c(C)n[nH]c1C
EC50 [1]: 17.5 µM (active)
EC50 [2]: > 112 µM (not active)
